According to US8138159B2, “Composition for inhibiting function of human Flt3” (Takara Bio Inc., priority 2003, dated 2012):

Assays:
[1] = system: MV4-11 (ITD mutation) cells; experiment: growth inhibition by siRNA3 in combination with kinase inhibitor AG1295, WST-1 (Example 4); format: cell-based, human; settings: siRNA3 alone, 1.2 μM at electroporation, 0 μM AG1295, 72 hours
Procedure: The growth inhibitory activity of treatment with a combination of the composition (synthesized siRNA3) of the present invention and a kinase inhibitor on MV4-11 (ITD mutation) cells was examined. The synthesized siRNA3 used was the same as in item (1) of Example 1 above. As the kinase inhibitor, AG1295 (manufactured by CALBIOCHEM) having high specificity to ITD mutation cells was used.
In the same manner as in item (2) of Example 1 above, MV4-11 cells were cultured at 37° C. for 24 hours in a medium obtained by supplementing 10% by volume fetal bovine serum (FBS) to an RPMI 1640 medium (manufactured by TAKARA BIO INC.) (referred to hereinafter as a culture medium) in the presence of 5% by volume CO2. Then, the MV4-11 cells (1×10^6 cells/ml) suspended in Opti-MEM (trade name, manufactured by Invitrogen) were transferred to a cuvette (manufactured by BIO RAD; gap of 4 mm), and siRNA3 was added to the cuvette so as to give a final concentration of 1.2 μM. Then, the cuvette was set in Gene Pulser Xcell (trade name, manufactured by BIO RAD) and thereafter pulsed with electric field intensity of 650 V/cm for 25 msec. Then, the suspension of the cells in the cuvette was added to, and suspended in, a 4-fold excess volume of the culture medium and dispensed onto a 96-well plate so as to give an amount of 100 μl/well. […]
4 mM AG1295 (dissolved in DMSO) was diluted with the above-mentioned culture medium to prepare AG1295 dilutions at a concentration of 10 μM, 6 μM and 0 μM (0.25% by volume DMSO) and added so as to give an amount of 100 μl/well to the 96-well plate prepared in step (2) above and cultured at 37° C. in the presence of 5% by volume CO2. Seventy-two hours after the culture was initiated, the growth activity of the cells was determined using Premix WST-1 reagent (trade name, manufactured by TAKARA BIO INC.) according to a manufacturer's protocol. Each experiment was carried out with n=6, and the mean was determined. The relative growth ratio (%) to the growth ability of the cells transfected with the control siRNA/0 μM AG1295 was determined. […]

[2] = system: Flt3 mRNA; experiment: Flt3 mRNA interference by synthesized siRNA, real-time RT-PCR (Example 1); format: cell-based, human; settings: for inhibition percentage (%) of the relative mRNA expression level (Flt3 mRNA/GAPDH mRNA): siRNA 200 pmol, Oligofectamin, after 24 hours, vs cells transfected without siRNA
Procedure: Each kind of cell selected from HL-60 cells [Flt3 WT (wild-type) low expressing cells; ATCC CCL-240], EoL-1 cells [Flt3 WT (wild-type) highly expressing cells; ECACC 94042252] and MV4-11 cells [Flt3/ITD highly expressing cells; ATCC CRL-9591] was cultured at 37° C. in an RPMI 1640 medium (manufactured by TAKARA BIO INC.) supplemented with 10% by volume fetal bovine serum (FBS) in the presence of 5% by volume CO2.
Then, the cells (2×10^5 cells/nil) were pre-cultured for 24 hours in a 6-well plate, then recovered, and suspended so as to give a density of 1.5×10^5 cells/ml in Opti-MEM (trade name, manufactured by Invitrogen), and the synthesized siRNA was added to the resulting suspension so as to give a final concentration of 200 pmol. Transfection was carried out using Oligofectamin (trade name, manufactured by Invitrogen) in an amount of 4 μl/reaction, according to an Invitrogen's protocol attached to Oligofectamin (trade name). As a control, the cells were subjected to similar operations without adding the siRNA. The unspecific influence of the siRNA was evaluated using an siRNA to a BCR/ABL chimera mRNA.
Confirmation of RNA interference of the target gene was carried out by determining change in mRNA level by a real-time RT-PCR method as shown below.
Using Oligofectamin (trade name, manufactured by Invitrogen), each kind of cell was transfected with the synthesized siRNA. After 24 hours, whole RNA was extracted from the resulting cells with TRIzol™ reagent (manufactured by Invitrogen), and the resulting product was treated with DNaseI (manufactured by TAKARA BIO INC.). The transfection, the extraction of the whole RNA and the treatment with DNaseI were carried out according to a manufacturer's protocol of the reagent used.
The real-time PCR method was carried out using a Real Time One Step RNA PCR Kit (trade name, manufactured by TAKARA BIO INC.), 100 ng of the resulting RNA as a template and a pair of primers (each 20 pmol), that is, an oligonucleotide having the nucleotide sequence of SEQ ID NO: 13 and an oligonucleotide having the nucleotide sequence of SEQ ID NO: 14. In the real-time RT-PCR method, change in fluorescence based on SYBER Green I (manufactured by TAKARA BIO INC.) was determined with Light Cycler (trade name, manufactured by Roche). The RNA level was standardized by similarly determining GAPDH mRNA with primers set forth in SEQ ID NOs: 15 and 16.
The PCR conditions were as follows: after incubation was carried out at 95° C. for 30 seconds, the reaction was carried out in 40 cycles each consisting of the reaction at 95° C. for 1 second, then at 60° C. for 10 seconds, and at 72° C. for 30 seconds.
The inhibition percentage (%) of the relative mRNA expression level (Flt3 mRNA/GAPDH mRNA) changed by using the synthesized siRNA, as calculated assuming that the relative mRNA expression level (Flt3 mRNA/GAPDH mRNA) of the cells only subjected to each operation of the transfection without adding the synthesized siRNA was 100%, was shown in Table 1.

[3] = MV4-11 (ITD mutation-highly expressing)

## siRNA3: siRNA to juxtamembrane region (Flt3/JMD region) (target SEQ ID NO: 7); sense SEQ ID NO: 8, antisense SEQ ID NO: 9 (sense UAUGAAUAUGAUCUCAAAUTT; antisense AUUUGAGAUCAUAUUCAUATT; chemistry not given here)
[1]
  growth inhibition as compared with the cells transfected with the control siRNA/0 μM AG1295: 83.7%
[2]; EoL1 (WT-highly expressing), the reference itself
  Relative ratio of inhibition defining RNA interference effect in EoL1 as 1: (1)
[2]; EoL1 (WT-highly expressing)
  inhibition percentage (%) of the relative mRNA expression level (Flt3 mRNA/GAPDH mRNA): 63%
[2]; Flt3 highly expressing cells vs Flt3 low expressing cells
  selective inhibition of Flt3 mRNA expression relative to the inhibition ratio in the Flt3 low expressing cells: ≥ 1.6 fold
[2]; Flt3 highly expressing cells, regardless of the presence or absence of ITD mutation
  inhibition of Flt3 mRNA expression relative to the cells without using an siRNA: 65%
[2]; HL60 (WT-low expressing)
  inhibition percentage (%) of the relative mRNA expression level (Flt3 mRNA/GAPDH mRNA): 38%
[2]; [3]
  Relative ratio of inhibition defining RNA interference effect in EoL1 as 1: (1)
  inhibition percentage (%) of the relative mRNA expression level (Flt3 mRNA/GAPDH mRNA): 65%
